# Experimental data taken from patent US12660819B2, “Herbicidal derivatives” (SYNGENTA CROP PROTECTION AG, priority 2020, dated 2026).
# Assays:
# Format in all cases: in vivo
# [1] = tested on: Zea mays (ZEAMX); experiment: Pre-emergence Test (glasshouse, percentage damage to the plant); settings: 1000 g/ha unless otherwise stated, five-point scale
# [2] = tested on: Amaranthus retoflexus (AMARE); experiment: as above; settings: 1000 g/ha unless otherwise stated, five-point scale
# [3] = tested on: Ipomoea hederacea (IPOHE); experiment: as above; settings: 1000 g/ha unless otherwise stated, five-point scale
# [4] = tested on: Setaria faberi (SETFA); experiment: as above; settings: 1000 g/ha unless otherwise stated, five-point scale
# [5] = tested on: Zea mays (ZEAMX); experiment: Post-emergence Test (glasshouse, percentage damage to the plant); settings: post-emergence spray, 1000 g/ha unless otherwise stated, evaluated after 13 days
# How it was run: (§1)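 Sown pots; spray 1000 g/ha (unless stated) in acetone/water 50:50 + 0.5% Tween 20; glasshouse 24/16 °C, 14 h light, 65% RH; watered twice daily; % damage read at 13 days, scored 1–5.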
# [6] = tested on: Abutilon theophrasti (ABUTH); experiment: as above; settings: post-emergence spray, 1000 g/ha unless otherwise stated, evaluated after 13 days
# How it was run: (§2)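 Damage was rated 13 days after treatment and expressed on a five-point scale: 5=81-100%, 4=61-80%, 3=41-60%, 2=21-40%, 1=0-20%. Spray was applied at 1000 g/ha unless otherwise stated, from acetone/water (50:50) with 0.5% Tween 20, to sown pots.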
# [7] = tested on: Ipomoea hederacea (IPOHE); experiment: as above; settings: post-emergence spray, 1000 g/ha unless otherwise stated, evaluated after 13 days
# How it was run: as §1
# [8] = tested on: Amaranthus retoflexus (AMARE); experiment: as above; settings: post-emergence spray, 1000 g/ha unless otherwise stated, evaluated after 13 days
# How it was run: as §2
# [9] = tested on: Setaria faberi (SETFA); experiment: as above; settings: post-emergence spray, 1000 g/ha unless otherwise stated, evaluated after 13 days
# How it was run: as §1
# [10] = tested on: Echinochloa crus-galli (ECHCG); experiment: as above; settings: post-emergence spray, 1000 g/ha unless otherwise stated, evaluated after 13 days
# How it was run: as §2
# [11] = tested on: Echinochloa crus-galli (ECHCG); experiment: Pre-emergence Test (glasshouse, percentage damage to the plant); settings: 1000 g/ha unless otherwise stated, five-point scale
# [12] = tested on: Abutilon theophrasti (ABUTH); experiment: as above; settings: 1000 g/ha unless otherwise stated, five-point scale
SMILES,"percentage damage to the plant, ZEAMX [1]","percentage damage to the plant, AMARE [2]","percentage damage to the plant, IPOHE [3]","percentage damage to the plant, SETFA [4]","Post-emergence Test ZEAMX, percentage damage to the plant (five-point scale) [5]","Post-emergence Test ABUTH, percentage damage to the plant (five-point scale) [6]","Post-emergence Test IPOHE, percentage damage to the plant (five-point scale) [7]","Post-emergence Test AMARE, percentage damage to the plant (five-point scale) [8]","Post-emergence Test SETFA, percentage damage to the plant (five-point scale) [9]","Post-emergence Test ECHCG, percentage damage to the plant (five-point scale) [10]","percentage damage to the plant, ECHCG [11]","percentage damage to the plant, ABUTH [12]"
"CCn1c(C)c(-c2cccs2)c(=O)c(C(=O)O)c1-c1ccc(Cl)c(Cl)c1 [Compound 74, 2-(3,4-dichlorophenyl)-1-ethyl-6-methyl-4-oxo-5-(2-thienyl)pyridine-3-carboxylic acid]",1 (1=0-20%),1 (1=0-20%),1 (1=0-20%),4 (4=61-80%),2 (2=21-40%),3 (3=41-60%),2 (2=21-40%),1 (1=0-20%),3 (3=41-60%),3 (3=41-60%),3 (3=41-60%),2 (2=21-40%)
"CCn1c(C)c(-c2ccc(S(=O)(=O)CC)cc2)c(=O)c(C(=O)O)c1-c1ccc(Cl)c(Cl)c1 [Compound 66, 2-(3,4-dichlorophenyl)-1-ethyl-5-(4-ethylsulfonylphenyl)-6-methyl-4-oxo-pyridine-3-carboxylic acid]",1 (1=0-20%),1 (1=0-20%),1 (1=0-20%),4 (4=61-80%),1 (1=0-20%),3 (3=41-60%),2 (2=21-40%),1 (1=0-20%),3 (3=41-60%),2 (2=21-40%),2 (2=21-40%),1 (1=0-20%)
"CCn1c(C)c(-c2ccc(C(C)=O)cc2)c(=O)c(C(=O)O)c1-c1ccc(Cl)c(Cl)c1 [Compound 90, 5-(4-acetylphenyl)-2-(3,4-dichlorophenyl)-1-ethyl-6-methyl-4-oxo-pyridine-3-carboxylic acid]",1 (1=0-20%),1 (1=0-20%),1 (1=0-20%),3 (3=41-60%),1 (1=0-20%),1 (1=0-20%),2 (2=21-40%),1 (1=0-20%),2 (2=21-40%),1 (1=0-20%),1 (1=0-20%),1 (1=0-20%)
"CCn1c(C)c(-c2cc(Cl)cc(Cl)c2)c(=O)c(C(=O)O)c1-c1ccc(Cl)c(Cl)c1 [Compound 56, 2-(3,4-dichlorophenyl)-5-(3,5-dichlorophenyl)-1-ethyl-6-methyl-4-oxo-pyridine-3-carboxylic acid]",1 (1=0-20%),1 (1=0-20%),1 (1=0-20%),1 (1=0-20%),1 (1=0-20%),1 (1=0-20%),1 (1=0-20%),1 (1=0-20%),1 (1=0-20%),1 (1=0-20%),1 (1=0-20%),1 (1=0-20%)
"CCn1c(C)c(-c2ccc(Cl)cc2OC)c(=O)c(C(=O)O)c1-c1ccc(Cl)c(Cl)c1 [Compound 154, 5-(4-chloro-2-methoxy-phenyl)-2-(3,4-dichlorophenyl)-1-ethyl-6-methyl-4-oxo-pyridine-3-carboxylic acid]",2 (2=21-40%),1 (1=0-20%),3 (3=41-60%),4 (4=61-80%),3 (3=41-60%),4 (4=61-80%),4 (4=61-80%),4 (4=61-80%),4 (4=61-80%),4 (4=61-80%),5 (5=81-100%),3 (3=41-60%)
"CCn1c(C)c(-c2cc(OC)cc(OC)c2)c(=O)c(C(=O)O)c1-c1ccc(Cl)c(Cl)c1 [Compound 70, 2-(3,4-dichlorophenyl)-5-(3,5-dimethoxyphenyl)-1-ethyl-6-methyl-4-oxo-pyridine-3-carboxylic acid]",1 (1=0-20%),1 (1=0-20%),1 (1=0-20%),3 (3=41-60%),2 (2=21-40%),2 (2=21-40%),1 (1=0-20%),1 (1=0-20%),3 (3=41-60%),2 (2=21-40%),1 (1=0-20%),1 (1=0-20%)
"CCn1c(C)c(-c2ccc(C(F)(F)F)c(Cl)c2)c(=O)c(C(=O)O)c1-c1ccc(Cl)c(Cl)c1 [Compound 64, 5-[3-chloro-4-(trifluoromethyl)phenyl]-2-(3,4-dichlorophenyl)-1-ethyl-6-methyl-4-oxo-pyridine-3-carboxylic acid]",1 (1=0-20%),2 (2=21-40%),1 (1=0-20%),1 (1=0-20%),1 (1=0-20%),1 (1=0-20%),1 (1=0-20%),1 (1=0-20%),1 (1=0-20%),1 (1=0-20%),1 (1=0-20%),1 (1=0-20%)
"CCn1c(C)c(-c2cccc(C(F)(F)F)c2)c(=O)c(C(=O)O)c1-c1ccc(Cl)c(Cl)n1 [Compound 150, 2-(5,6-dichloro-2-pyridyl)-1-ethyl-6-methyl-4-oxo-5-[3-(trifluoromethyl)phenyl] pyridine-3-carboxylic acid]",1 (1=0-20%),0,0,0,1 (1=0-20%),0,2 (2=21-40%),0,1 (1=0-20%),1 (1=0-20%),0,0
"CCn1c(C)c(-c2cc(C)cc(C#N)c2)c(=O)c(C(=O)O)c1-c1ccc(Cl)c(Cl)c1 [Compound 80, 5-(3-cyano-5-methyl-phenyl)-2-(3,4-dichlorophenyl)-1-ethyl-6-methyl-4-oxo-pyridine-3-carboxylic acid]",1 (1=0-20%),1 (1=0-20%),1 (1=0-20%),4 (4=61-80%),1 (1=0-20%),3 (3=41-60%),1 (1=0-20%),3 (3=41-60%),3 (3=41-60%),1 (1=0-20%),1 (1=0-20%),1 (1=0-20%)
"CCn1c(C)c(-c2cccc(C#N)c2)c(=O)c(C(=O)O)c1-c1ccnc(Cl)c1 [Compound 141, 2-(2-chloro-4-pyridyl)-5-(3-cyanophenyl)-1-ethyl-6-methyl-4-oxo-pyridine-3-carboxylic acid]",0,0,0,0,0,0,0,0,0,0,0,0
